The values below come from US20210348119A1, “COMPOSITIONS AND METHODS FOR CELL CULTURE” (The United States of America as Represented By The …, priority 2018, published 2021).

The assay relates to H9 cells. Nature of the assay: qHTS for survival of dissociated H9 cells (CellTiter-Glo, 24 hours after seeding). Format: cell-based, human. The text has this:
FIG. 2 schematically illustrates qHTS procedure.
All the screed compounds were received pre-plated at the pre-determined concentrations. […] Curve classification is explained in Huang et al. “Chemical genomics profiling of environmental chemical modulation of human nuclear receptors” Environ. Health. Perspect.
(qHTS replaces the single test concentration by a dilution series.)

Setting [1] is: H9 cell survival normalized to 10 μM Y-27632 (taken to be 100%).
[2] abbreviates: H9 cell survival, normalized to 10 μM Y-27632.
Setting [3] is: H9 cell survival, CellTiter-Glo 24 hours after seeding; read-out: AC50 (concentration at 50% efficacy).
Where [4] appears, read: Homo sapiens, H9, 24 h, H9 cell survival normalized to 10 μM Y-27632 (taken to be 100%); read-out: Max (maximum activity value from all tested concentrations).
[5] abbreviates: Homo sapiens, H9, 24 h, H9 cell survival, CellTiter-Glo 24 hours after seeding; read-out: AC50 (concentration at 50% efficacy).
[6] abbreviates: Homo sapiens, H9, 24 h, H9 cell survival, normalized to 10 μM Y-27632; read-out: Efficacy (activity range between predicted activities at zero and infinite doses, Hill equation).

Several values for one entry are separate records, joined by “and”; a condition that tells them apart may be missing. Identical values can stand only once. Like-named read-outs stand apart in the source and are kept apart here.

As for `CCn1c(-c2nonc2N)nc2cncc(CNC3CCNCC3)c21` [SB-747651-A], the “Max (maximum activity value from all tested concentrations)” value under setting [1] was 78.33% and 111.1%. Besides, the “Efficacy (activity range between predicted activities at zero and infinite doses, Hill equation)” value under setting [2] is 35.5 and 68.7.
Turning to `CN(C)CCOc1cc(-c2cn[nH]c2)ccc1NC(=O)C1COc2ccccc2O1` (centres unmarked) [SR-3677], the AC50 by setting is: under setting [3], 0.662 µM; under setting [5], 0.585 µM. The Emax by setting is: under setting [4], 122%; under setting [6], 118%.
`O=S(=O)(N=Cc1c(O)ccc2ccccc12)c1cccs1` [STF-083010]: under setting [1], the “Max (maximum activity value from all tested concentrations)” value is given as 66.46%. Moreover, the AC50 under setting [3] is 26.4 µM. The “Efficacy (activity range between predicted activities at zero and infinite doses, Hill equation)” value under setting [2] is recorded as 82.4.
In the case of `Cc1cc2c(cc1CC(=O)c1sccc1S(=O)(=O)[N-]c1onc(C)c1Cl)OCO2.[Na+]` [Sitaxenian sodium], under setting [1], the “Max (maximum activity value from all tested concentrations)” value turned out to be 21.69%. Also, the AC50 under setting [3] is 26.1 µM. Further, the “Efficacy (activity range between predicted activities at zero and infinite doses, Hill equation)” value under setting [2] is listed as 27.1.
`CN1CCN(c2nc(C3=C(c4c[nH]c5ccccc45)C(=O)NC3=O)c3ccccc3n2)CC1` [Sotrastaurin]: the Emax reads like this: under setting [4], 35.9%; under setting [6], 36.5%. The AC50 under setting [5] came out at 16.6 µM.
Regarding `Brc1c(Br)c(Br)c2n[nH]nc2c1Br` [TBB], the “Max (maximum activity value from all tested concentrations)” value under setting [1] was determined as 28.55%. The AC50 under setting [3] amounted to 32.6 µM. Further, the “Efficacy (activity range between predicted activities at zero and infinite doses, Hill equation)” value under setting [2] is 33.7.
Consider `O=C(O)Cc1cc(I)c(Oc2cc(I)c(O)c(I)c2)c(I)c1` [TETRAC], for which the Emax was 34.2% under setting [4] and 35.8% under setting [6]. For the same compound, under setting [5], the AC50 worked out at 14.7 µM.
The corresponding values for `Cc1cnc(Nc2ccc(OCCN3CCCC3)cc2)nc1Nc1cccc(S(=O)(=O)NC(C)(C)C)c1` [TG-101348] are 55.1%, 67.3% and 33.2 µM.
In the case of `O=C(NCc1ccccc1)c1csc(Nc2ccncn2)n1` [Thiazovivin], the “Max (maximum activity value from all tested concentrations)” value under setting [1] worked out at 88.3%. Further, under setting [3], the AC50 was 0.414 µM. The “Efficacy (activity range between predicted activities at zero and infinite doses, Hill equation)” value under setting [2] is 80.6.
Take `C=C(NC(=O)C(=C)NC(=O)c1csc(C2=N[C@@H]3c4csc(n4)[C@H]4NC(=O)c5csc(n5)[C@H]([C@](C)(O)[C@@H](C)O)NC(=O)[C@H]5CSC(=N5)/C(=C/C)NC(=O)[C@H]([C@@H](C)O)NC(=O)c5csc(n5)[C@]3(CC2)NC(=O)[C@H](C)NC(=O)C(=C)NC(=O)[C@H](C)NC(=O)[C@H]([C@@H](C)CC)N[C@@H]2C=Cc3c([C@H](C)O)cc(nc3[C@H]2O)C(=O)O[C@@H]4C)n1)C(N)=O` [Thiostrepton from Streptomyces azureus, Thiostrepton]: the AC50 (Homo sapiens, H9, 24 h, read-out: AC50 (concentration at 50% efficacy)) worked out at 14.7 µM. Also, the Emax was 30.2% (Homo sapiens, H9, 24 h, read-out: Efficacy (activity range between predicted activities at zero and infinite doses, Hill equation)); 28.4% (Homo sapiens, H9, 24 h, read-out: Max (maximum activity value from all tested concentrations)).
Turning to `Nc1nc2nc[nH]c2c(=S)[nH]1` [Tioguanine], the Emax reads like this: under setting [4], 21.3%; under setting [6], 0%.
With `CCC[C@@]1(CCc2ccccc2)CC(O)=C([C@H](CC)c2cccc(NS(=O)(=O)c3ccc(C(F)(F)F)cn3)c2)C(=O)O1` [Tipranavir], the Emax is, setting by setting: (Homo sapiens, H9, 24 h; read-out: Efficacy (activity range between predicted activities at zero and infinite doses, Hill equation)) 26.5%; (Homo sapiens, H9, 24 h; read-out: Max (maximum activity value from all tested concentrations)) 21.8%. In addition, under “Homo sapiens; H9 cell survival, CellTiter-Glo 24 hours after seeding; read-out: AC50 (concentration at 50% efficacy)”, the AC50 is 26.1 µM.
As to `CCC(=O)N1CCN(c2ccc(-n3c(=O)ccc4cnc5ccc(-c6cnc7ccccc7c6)cc5c43)cc2C(F)(F)F)CC1` [Torin-1], the “Max (maximum activity value from all tested concentrations)” value under setting [1] turned out to be 27.66%. Moreover, under setting [3], the AC50 stood at 10.5 µM. For the same compound, the “Efficacy (activity range between predicted activities at zero and infinite doses, Hill equation)” value under setting [2] was 31.2.
Turning to `CN1CCN(Cc2ccc(-c3cnc4[nH]cc(-c5ccc6[nH]ccc6c5)c4c3)cc2)CC1` [URMC-099], the Emax is 27.1% under setting [4] and 33.6% under setting [6]. Also, the AC50 under setting [5] was 5.21 µM.
The like results for `C[C@H]1[C@H](C)CC[C@]2(C(=O)O)CC[C@]3(C)C(=CC[C@@H]4[C@@]5(C)CC[C@H](O)C(C)(C)[C@@H]5CC[C@]43C)[C@H]12` [URSOLIC ACID] were, in that order, 22.3%, 11.7% and 0.521 µM.
